Data taken from ChEMBL document CHEMBL1132895, “Immunomodulatory activity of hexapeptides related to proline rich peptide from colostrum” (2000).
Non-standard residues stand in square brackets, D forms with d. Residues, ends and D or L forms follow the SMILES beside them. Nva = CCC[C@H](N)C(=O)O; Sar = CNCC(=O)O

Assays:
Type in all cases: functional
[1] = species on record: Mus musculus; assay: Compound (0.10 ug/mL) was tested for their immunomodulatory activity in vitro using lymphocyte transformation test
[2] = species on record: Mus musculus; assay: Compound (0.10 ug/mL) was tested for their immunomodulatory activity in vitro using mixed lymphocyte reaction
[3] = species on record: Mus musculus; assay: Compound (1.0 ug/mL) was tested for their immunomodulatory activity in vitro using lymphocyte transformation test
[4] = species on record: Mus musculus; assay: Compound (1.0 ug/mL) was tested for their immunomodulatory activity in vitro using mixed lymphocyte reaction
[5] = species on record: Mus musculus; assay: Compound (10 ug/mL) was tested for their immunomodulatory activity in vitro using lymphocyte transformation test
[6] = species on record: Mus musculus; assay: Compound (10 ug/mL) was tested for their immunomodulatory activity in vitro using mixed lymphocyte reaction
[7] = species on record: Mus musculus; assay: Compound (0.01 ug/mL) was tested for their immunomodulatory activity in vitro using lymphocyte transformation test
[8] = species on record: Mus musculus; assay: Compound (0.01 ug/mL) was tested for their immunomodulatory activity in vitro using mixed lymphocyte reaction

Compound | Stimulation index [1] | Stimulation index [2] | Stimulation index [3] | Stimulation index [4] | Stimulation index [5] | Stimulation index [6] | Stimulation index [7] | Stimulation index [8]
CC(C)[C@H](NC(=O)[C@@H](N)Cc1ccc(O)cc1)C(=O)N1CCC[C@H]1C(=O)NCC(=O)N[C@@H](Cc1ccccc1)C(=O)N1CCC[C@H]1C(=O)O | 1.05 | 0.79 | 1.02 | 0.85 | 0.75 | 1 | 1.13 | 0.72
CC(C)[C@H](NC(=O)[C@@H](N)Cc1ccc(O)cc1)C(=O)N1CCC[C@H]1C(=O)NCC(=O)N[C@@H](Cc1ccccc1)C(=O)N(C)CC(=O)O (H-YVPGF[Sar]-OH) | 0.61 | 0.8 | 1.9 | 0.72 | 1.6 | 0.92 | 0.83 | 0.71
CC(C)C[C@H](NC(=O)[C@@H]1CCCN1C(=O)[C@@H](NC(=O)[C@@H](N)Cc1ccc(O)cc1)C(C)C)C(=O)N[C@@H](Cc1ccccc1)C(=O)N(C)CC(=O)O (H-YVPLF[Sar]-OH) | 0.86 | – | 1.21 | – | 1.2 | – | 0.9 | –
CC(C)[C@H](NC(=O)[C@@H](N)Cc1ccc(O)cc1)C(=O)N1CCC[C@H]1C(=O)N(C)CC(=O)N[C@@H](Cc1ccccc1)C(=O)N1CCC[C@H]1C(=O)O (H-YVP[Sar]FP-OH) | 1.21 | – | 1.37 | – | 0.96 | – | 1.41 | –
CCC[C@H](NC(=O)[C@@H](N)Cc1ccc(O)cc1)C(=O)N1CCC[C@H]1C(=O)NCC(=O)N[C@@H](Cc1ccccc1)C(=O)N1CCC[C@H]1C(=O)O (H-Y[Nva]PGFP-OH) | 1.06 | – | 1.15 | – | 0.73 | – | 0.86 | –
CC(C)C[C@H](NC(=O)CN(C)C(=O)[C@@H](NC(=O)[C@@H](N)Cc1ccc(O)cc1)C(C)C)C(=O)N[C@@H](Cc1ccccc1)C(=O)N1CCCC1C(=O)O (single isomer, unassigned) | 0.97 | – | 1.24 | – | 1.12 | – | 0.88 | –
C[C@]12C=CC(=O)C=C1CCC1[C@@H]2[C@@H](O)C[C@@]2(C)[C@H]1CC[C@]2(O)C(=O)CO (single isomer, unassigned) [PREDNISOLONE] | – | 0.3 | – | – | – | – | – | –
CC(C)C[C@H](NC(=O)C1CCCN1C(=O)[C@@H](NC(=O)C(N)Cc1ccc(O)cc1)C(C)C)C(=O)N[C@@H](Cc1ccccc1)C(=O)N1CCCC1C(=O)O (single isomer, unassigned; form 1) | 1.08 | – | 0.88 | – | 0.82 | – | 1.1 | –
CC(C)[C@H](NC(=O)[C@@H](N)Cc1ccc(O)cc1)C(=O)N1CCCC1C(=O)NCC(=O)NC(Cc1ccccc1)C(=O)N1CCCC1C(=O)O (single isomer, unassigned; form 1) | 1.02 | – | 0.96 | – | 1.05 | – | 0.89 | –
CC(C)C[C@H](NC(=O)C1CCCN1C(=O)[C@@H](NC(=O)C(N)Cc1ccc(O)cc1)C(C)C)C(=O)N[C@@H](Cc1ccccc1)C(=O)N1CCCC1C(=O)O (single isomer, unassigned; form 2) | 0.86 | – | 1.27 | – | 0.95 | – | 0.78 | –
CC(C)[C@H](NC(=O)[C@@H](N)Cc1ccc(O)cc1)C(=O)N1CCCC1C(=O)NCC(=O)NC(Cc1ccccc1)C(=O)N1CCCC1C(=O)O (single isomer, unassigned; form 2) | 1.29 | 0.9 | 1.17 | 1.31 | 1.4 | 1 | 0.97 | 0.96
H-YLPGFP-OH | 0.64 | 0.5 | 0.62 | 1.2 | 0.59 | 1.24 | 0.75 | 0.63
H-YVPGFP-NH2 | 0.85 | – | 1.1 | – | 0.84 | – | 0.83 | –
